Results: patent US9782484B2, “Method for producing a composite organic compound powder for medical use” (ACTIVUS PHARMA CO., LTD., priority 2008, dated 2017)

What was measured:
[1] = Size distribution of particles in suspension by particle size distribution analyzer (Delsa Nano S); type: physicochemical; settings: starting compound suspended with 0.03% sodium lauryl sulfate
Procedure: Fine-pulverizing experiments will now be described in each of which a carboxyvinyl polymer and a lecithin were added. The average particle diameter before and after fine-pulverizing for a powder was measured using a BET type specific surface area analyzer (Macsorb model HM-1201, from Mountech Co., Ltd.). The particle diameter of particles in a suspension was measured using a particle size distribution analyzer (Delsa Nano S, from Beckman Coulter, Inc.). “D50” is the diameter of a particle having an integrated value of 50% as counted in order of decreasing particle size (or in order of increasing particle size) (called “median particle diameter”) in the size distribution. “D90” is the diameter of a particle having an integrated value of 90% as counted in order of increasing particle size (called “90% median diameter”) in the size distribution. “Dv” is the volume average diameter (called “average particle diameter”).
An experiment of improving a collection efficiency by addition of a lecithin to fine-pulverized particles will now be described. Unless otherwise stated, the average particle diameter of particles was measured using a BET type specific surface area analyzer (Macsorb model HM-1201, from Mountech Co., Ltd.). The particle diameter of particles in a suspension was measured using a particle size distribution analyzer (Delsa Nano S, from Beckman Coulter, Inc.). “D50” is the diameter of a particle having an integrated value of 50% as counted in order of decreasing particle size (or in order of increasing particle size) (called “median particle diameter”) in the size distribution. “D90” is the diameter of a particle having an integrated value of 90% as counted in order of increasing particle size (called “90% median diameter”) in the size distribution. “Dv” is the volume average diameter (called “average particle diameter”).

[2] = Average particle diameter of dried powder converted from BET specific surface area; type: physicochemical; settings: starting organic compound powder, Table 1 and text
Procedure: According to the present invention, the “average particle diameter converted from the BET specific surface area” is calculated by converting a value of the specific surface area measured by the BET flow method (one-point type) to the diameter of a hypothetical spherical particle. The following formula 1 is a conversion formula for converting a value of the specific surface area to the diameter. Here, D is an average particle diameter, ρ is a solid density, S is a specific surface area, and α is a shape factor. α is 6 for spherical particles. D=α/(ρ·S) (formula 1)
The BET flow method is preferably a method for measuring the specific surface area by the following procedure. A mixed gas of nitrogen and helium is flowed into a cell in which a sample to be measured is placed, followed by cooling the sample with liquid nitrogen. Then, only nitrogen gas adsorbs to the surface of the sample. Subsequently, when the cell is returned to ordinary temperature, the desorption of the gas occurs. During the desorption of gas, the proportion of nitrogen gas in the mixed gas flowing through one detector becomes larger than the proportion of nitrogen gas flowing through another detector. The difference between signals from these detectors represents the adsorption amount, enabling the measurement of the specific surface area.
Fine-pulverizing experiments are first described in each of which a carboxyvinyl polymer was added. The average particle diameter before and after fine-pulverizing for a dried powder was calculated by converting, by the above-described formula 1, the BET specific surface area measured using a BET type specific surface area analyzer (Macsorb model […], from Mountech Co., Ltd.). The observation of the powder before and after fine-pulverizing was carried out using a scanning electron microscope (model SEM VE-7800, from Keyence Corporation).
Fine-pulverizing experiments will now be described in each of which a carboxyvinyl polymer and a lecithin were added. The average particle diameter before and after fine-pulverizing for a powder was measured using a BET type specific surface area analyzer (Macsorb model HM-1201, from Mountech Co., Ltd.). The particle diameter of particles in a suspension was measured using a particle size distribution analyzer (Delsa Nano S, from Beckman Coulter, Inc.). “D50” is the diameter of a particle having an integrated value of 50% as counted in order of decreasing particle size (or in order of increasing particle size) (called “median particle diameter”) in the size distribution. “D90” is the diameter of a particle having an integrated value of 90% as counted in order of increasing particle size (called “90% median diameter”) in the size distribution. “Dv” is the volume average diameter (called “average particle diameter”). […]

| SMILES | 90% median diameter (D90) before fine-pulverizing [1] | average particle diameter (Dv) before fine-pulverizing [1] | median particle diameter (D50) before fine-pulverizing [1] | Average Particle Diameter before Fine-pulverizing [2] |
| --- | --- | --- | --- | --- |
| Nc1nc2c(ncn2COCCO)c(=O)[nH]1 [aciclovir] | 69,371 nm | 60,371 nm | 52,997 nm |  |
| O=C(O)Cc1ccc(-c2ccccc2)cc1 [felbinac] |  |  |  | 34,000 nm |
| Clc1ccc(COC(Cn2ccnc2)c2ccc(Cl)cc2Cl)c(Cl)c1 (stereo not shown) [miconazole] |  |  |  | 10,900 nm |

Further lines, results first:

| 90% median diameter (D90) before fine-pulverizing [1] | average particle diameter (Dv) before fine-pulverizing [1] | median particle diameter (D50) before fine-pulverizing [1] | Average Particle Diameter before Fine-pulverizing [2] | SMILES |
| --- | --- | --- | --- | --- |
| 15,181 nm | 13,423 nm | 11,843 nm |  | C[C@@H]1[C@H](O)[C@@H](C)/C=C/C=C/C=C/C=C/C=C/C=C/C=C/[C@H](O[C@@H]2O[C@H](C)[C@@H](O)[C@H](N)[C@@H]2O)C[C@@H]2O[C@](O)(C[C@@H](O)C[C@@H](O)[C@H](O)CC[C@@H](O)C[C@@H](O)CC(=O)O[C@H]1C)C[C@H](O)[C@H]2C(=O)O [amphotericin B] |
|  |  |  | 7,850 nm | CCC(=O)O[C@]1(C(=O)SCF)[C@H](C)C[C@H]2[C@@H]3C[C@H](F)C4=CC(=O)C=C[C@]4(C)[C@@]3(F)[C@@H](O)C[C@@]21C [fluticasone propionate] |
|  |  |  | 3,960 nm | COc1ccc2c(c1)c(CC(=O)O)c(C)n2C(=O)c1ccc(Cl)cc1 [indomethacin] |
